Tested on: human bladder smooth muscle
Experiment: Relaxing effect on resting tension of isolated human bladder smooth muscle strips
Assay type: cell-based
Conditions: drug added cumulatively about every 5 minutes, 0 % = 10^-5 M forskolin, Figure 1
Experimental: Measurement of the contractile force of human bladder smooth muscle strips (1) Smooth muscle preparations Human bladders were obtained from patients undergoing cystectomy and were carefully dissected free from the surrounding fat and mucosa. Preparations were prepared by cutting the bladder smooth muscle longitudinally into about 1.5 cm in length and about 3 mm in width and used. […] Conditions for measurement; The bathing solution was maintained at 37 °C and gassed with a mixture of 95 % O2 and 5 % CO2. Drug Treatment; The drug was cumulatively added about every 5 minutes. Evaluation of the drug effects; The drug-induced relaxation was evaluated. The tension before the drug treatment is indicated as 100 %, and the tension after treatment with 10^-5 M forskolin which produces maximal bladder relaxation is indicated as 0 %. According to the method described above, the bladder relaxing effects of the following drugs were measured using human bladder smooth muscle.

SMILES | relaxing effects on bladder smooth muscle
CC(C)NCC(O)c1ccc(O)c(O)c1 (centres unmarked) [isoproterenol] | apparent relaxing effects
CC(C)(C)NCC(O)COc1cccc2[nH]c(=O)[nH]c12.Cl (racemic) [CGP-12,177A hydrochloride, (±)-4-[3-[(1,1-dimethylethyl)-amino]-2-hydroxypropoxy]-1,3-dihydro-2H-benzimidazol-2-on hydrochloride] | apparent relaxing effects
